Data: patent US20240246952A1, “SMALL MOLECULE MODULATORS OF GLUCOCEREBROSIDASE ACTIVITY AND USES THEREOF” (Vanqua Bio, Inc., priority 2021, published 2024)

target: T1, GCase (Homo sapiens, UniProt P04062); test: activation of GCase in a live cell PFB assay in HELA cells; format: cell-based
T1 construct: endogenous in cells; host or cells: HeLa cells
T1 sequence (P04062 40-536): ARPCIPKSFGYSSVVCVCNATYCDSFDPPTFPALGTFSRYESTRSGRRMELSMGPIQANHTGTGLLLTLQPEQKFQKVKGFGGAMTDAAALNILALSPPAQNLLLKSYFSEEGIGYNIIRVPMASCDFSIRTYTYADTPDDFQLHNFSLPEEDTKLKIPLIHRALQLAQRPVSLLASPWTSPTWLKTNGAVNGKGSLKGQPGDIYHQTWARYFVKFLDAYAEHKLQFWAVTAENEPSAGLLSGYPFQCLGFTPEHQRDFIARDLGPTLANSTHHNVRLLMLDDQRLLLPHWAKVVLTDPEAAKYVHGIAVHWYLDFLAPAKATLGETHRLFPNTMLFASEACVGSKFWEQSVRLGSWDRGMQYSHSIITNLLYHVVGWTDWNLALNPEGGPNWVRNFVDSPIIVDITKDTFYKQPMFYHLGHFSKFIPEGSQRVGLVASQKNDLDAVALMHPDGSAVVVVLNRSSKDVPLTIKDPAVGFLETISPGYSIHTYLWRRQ
Description: Exemplary compounds were evaluated for activation of GCase in a live cell PFB assay in HELA cells (essentially as described in Ysselstein et al., “LRRK2 kinase activity regulates lysosomal glucocerebrosidase in neurons derived from Parkinson's disease patients” Nature Communications (2019) 10:5570).

Row | SMILES | EC50
1 | FC(F)(F)c1cccc(-c2nnc(C3(F)CCCN(c4cnc5cnn(CC6COC6)c5n4)C3)s2)n1 (centres unmarked) [Compound 27, 2-(3-Fluoro-1-(1-(oxetan-3-ylmethyl)-1H-pyrazolo[3,4-b]pyrazin-6-yl)piperidin-3-yl)-5-(6-(trifluoromethyl)pyridin-2-yl)-1,3,4-thiadiazole] | < 10 µM
2 | c1ccc(-c2nnc(C3CCCN(c4ncc5ccccc5n4)C3)s2)cc1 (centres unmarked) [Compound 14, 2-Phenyl-5-(1-(quinazolin-2-yl)piperidin-3-yl)-1,3,4-thiadiazole] | 10 to 50 µM
3 | FC(F)(F)c1cccc(-c2nnc(C3(F)CCCN(c4cnc5ccccc5n4)C3)s2)n1 (centres unmarked) [Compound 13, 2-(3-Fluoro-3-{5-[6-(trifluoromethyl)pyridin-2-yl]-1,3,4-thiadiazol-2-yl}piperidin-1-yl)quinoxaline] | 10 to 50 µM
4 | FC(F)(F)Oc1ccccc1-c1nnc(C2CCCN(c3cncc(-c4nncs4)n3)C2)s1 (centres unmarked) [Compound 22, 2-(1-(6-(1,3,4-thiadiazol-2-yl)pyrazin-2-yl)piperidin-3-yl)-5-(2-(trifluoromethoxy)phenyl)-1,3,4-thiadiazole] | < 10 µM
5 | COc1ncncc1-c1nnc(C2CCCN(c3cnc4ccccc4n3)C2)s1 (centres unmarked) [Compound 18, 2-(4-Methoxypyrimidin-5-yl)-5-(1-(quinoxalin-2-yl)piperidin-3-yl)-1,3,4-thiadiazole] | 10 to 50 µM
6 | c1ccc(-c2nnc(C3CCCN(c4cnc5ccccc5n4)C3)s2)cc1 (centres unmarked) [Compound 11, 2-Phenyl-5-(1-(quinoxalin-2-yl)piperidin-3-yl)-1,3,4-thiadiazole] | 10 to 50 µM
7 | O=C(c1ccc2ccn(C3COC3)c2c1)N1CCCC(F)(c2nnc(-c3cccc(C(F)(F)F)n3)s2)C1 (centres unmarked) [Compound 26, (3-Fluoro-3-(5-(6-(trifluoromethyl)pyridin-2-yl)-1,3,4-thiadiazol-2-yl)piperidin-1-yl)(1-(oxetan-3-yl)-1H-indol-6-yl)methanone] | 10 to 50 µM
8 | CCn1cnc2ncc(N3CCCC(c4nnc(-c5ccccc5)s4)C3)nc21 (centres unmarked) [Compound 20, 2-(1-(1-Ethyl-1H-imidazo[4,5-b]pyrazin-6-yl)piperidin-3-yl)-5-phenyl-1,3,4-thiadiazole] | < 10 µM
9 | FC(F)Cn1ncc2ncc(N3C[C@@H]4[C@H](C3)[C@H]4c3nnc(-c4cccnc4C(F)(F)F)s3)nc21 [Compound 23, 2-((1R,5S,6r)-3-(1-(2,2-Difluoroethyl)-1H-pyrazolo[3,4-b]pyrazin-6-yl)-3-azabicyclo[3.1.0]hexan-6-yl)-5-(2-(trifluoromethyl)pyridin-3-yl)-1,3,4-thiadiazole] | > 100 µM
10 | FC(F)(F)Cn1ncc2ncc(N3CCCC(F)(c4nnc(-c5cccc(C(F)(F)F)n5)s4)C3)nc21 (centres unmarked) [Compound 6, 2-(3-Fluoro-1-(1-(2,2,2-trifluoroethyl)-1H-pyrazolo[3,4-b]pyrazin-6-yl)piperidin-3-yl)-5-(6-(trifluoromethyl)pyridin-2-yl)-1,3,4-thiadiazole] | 10 to 50 µM
11 | Cc1nnc(C2CCCN(c3ncc4ccccc4n3)C2)s1 (centres unmarked) [Compound 16, 2-methyl-5-(1-(quinazolin-2-yl)piperidin-3-yl)-1,3,4-thiadiazole] | > 100 µM
12 | FC(F)Cn1ncc2ncc(N3CCCC(c4nnc(-c5cccc(C(F)(F)F)n5)s4)C3)nc21 (centres unmarked) [Compound 2, 2-(5-{1-[1-(2,2-difluoroethyl)pyrazolo[3,4-b]pyrazin-6-yl]piperidin-3-yl}-1,3,4-thiadiazol-2-yl)-6-(trifluoromethyl)pyridine] | 10 to 50 µM
13 | FC(F)Cn1ncc2ncc(N3C[C@@H]4[C@H](C3)[C@H]4c3nnc(-c4ccccc4)s3)nc21 [Compound 28, 2-((1R,5S,6R)-3-(1-(2,2-Difluoroethyl)-1H-pyrazolo[3,4-b]pyrazin-6-yl)-3-azabicyclo[3.1.0]hexan-6-yl)-5-phenyl-1,3,4-thiadiazole] | 10 to 50 µM
14 | FC(F)Cn1ncc2ncc(N3CCCC(c4nnc(-c5ccccc5)s4)C3)nc21 (centres unmarked) [Compound 19, 2-(1-(1-(2,2-Difluoroethyl)-1H-pyrazolo[3,4-b]pyrazin-6-yl)piperidin-3-yl)-5-phenyl-1,3,4-thiadiazole] | < 10 µM
15 | O=C(c1ccc2cc[nH]c2c1)N1CCCC(c2nnc(-c3ccccc3)s2)C1 (centres unmarked) [Compound 12, (1H-Indol-6-yl)(3-(5-phenyl-1,3,4-thiadiazol-2-yl)piperidin-1-yl)methanone] | 10 to 50 µM
16 | O=C(c1ccc2cc[nH]c2c1)N1CCCC(c2nnc(-c3cccnc3C(F)(F)F)s2)C1 (centres unmarked) [Compound 17, (1H-Indol-6-yl)(3-(5-(2-(trifluoromethyl)pyridin-3-yl)-1,3,4-thiadiazol-2-yl)piperidin-1-yl)methanone] | 10 to 50 µM
17 | FC(F)Cn1ncc2ncc(N3CCCC(c4nnc(-c5cccnc5C(F)(F)F)s4)C3)nc21 (centres unmarked) [Compound 7, 2-(1-(1-(2,2-Difluoroethyl)-1H-pyrazolo[3,4-b]pyrazin-6-yl)piperidin-3-yl)-5-(2-(trifluoromethyl)pyridin-3-yl)-1,3,4-thiadiazole] | 10 to 50 µM
18 | FC(F)(F)c1cccc(-c2nnc(C3(F)CCCN(c4cnc5cnn(C6COC6)c5n4)C3)s2)n1 (centres unmarked) [Compound 24, 2-(3-fluoro-1-(1-(oxetan-3-yl)-1H-pyrazolo[3,4-b]pyrazin-6-yl)piperidin-3-yl)-5-(6-(trifluoromethyl)pyridin-2-yl)-1,3,4-thiadiazole] | > 100 µM
19 | c1ccc(-c2nnc(C3CCCN(c4cncc(-c5nncs5)n4)C3)s2)cc1 (centres unmarked) [Compound 1, 2-[3-(5-phenyl-1,3,4-thiadiazol-2-yl)piperidin-1-yl]-6-(1,3,4-thiadiazol-2-yl)pyrazine] | 10 to 50 µM
20 | CCn1ncc2ncc(N3CCCC(c4nnc(-c5ccccc5)s4)C3)nc21 (centres unmarked) [Compound 15, 2-(1-(1-Ethyl-1H-pyrazolo[3,4-b]pyrazin-6-yl)piperidin-3-yl)-5-phenyl-1,3,4-thiadiazole] | 50 to 100 µM
21 | O=C(c1ccc2cc[nH]c2c1)N1CCCC(c2nnc(-c3ccccc3C(F)(F)F)s2)C1 (centres unmarked) [Compound 9, (1H-Indol-6-yl)(3-(5-(2-(trifluoromethyl)phenyl)-1,3,4-thiadiazol-2-yl)piperidin-1-yl)methanone] | 10 to 50 µM
22 | FC(F)Cn1ncc2ncc(N3CCCC(c4nnc(-c5ccc(C(F)(F)F)nc5)s4)C3)nc21 (centres unmarked) [Compound 21, 2-(1-(1-(2,2-Difluoroethyl)-1H-pyrazolo[3,4-b]pyrazin-6-yl)piperidin-3-yl)-5-(6-(trifluoromethyl)pyridin-3-yl)-1,3,4-thiadiazole] | < 10 µM
23 | CCn1ccc2ncc(N3CCCC(c4nnc(-c5ccccc5)s4)C3)nc21 (centres unmarked) [Compound 3, 2-(1-(5-ethyl-5H-pyrrolo[2,3-b]pyrazin-3-yl)piperidin-3-yl)-5-phenyl-1,3,4-thiadiazole] | 10 to 50 µM
24 | Fc1ccccc1-c1nnc(C2CCCN(c3ncc4ccccc4n3)C2)s1 (centres unmarked) [Compound 10, 2-(2-Fluorophenyl)-5-(1-(quinazolin-2-yl)piperidin-3-yl)-1,3,4-thiadiazole] | 10 to 50 µM
25 | Fc1ccccc1-c1nnc(C2CCCN(c3cnc4ccccc4n3)C2)s1 (centres unmarked) [Compound 4, 2-(2-fluorophenyl)-5-(1-(quinoxalin-2-yl)piperidin-3-yl)-1,3,4-thiadiazole] | 10 to 50 µM
26 | O=C(c1ccc2ccn(CC3COC3)c2c1)N1CCCC(F)(c2nnc(-c3cccc(C(F)(F)F)n3)s2)C1 (centres unmarked) [Compound 25, (3-Fluoro-3-(5-(6-(trifluoromethyl)pyridin-2-yl)-1,3,4-thiadiazol-2-yl)piperidin-1-yl)(1-(oxetan-3-ylmethyl)-1H-indol-6-yl)methanone] | 10 to 50 µM
27 | FC(F)(F)Oc1ccccc1-c1nnc(C2(F)CCCN(c3cncc(-c4nncs4)n3)C2)s1 (centres unmarked) [Compound 29, 2-(1-(6-(1,3,4-Thiadiazol-2-yl)pyrazin-2-yl)-3-fluoropiperidin-3-yl)-5-(2-(trifluoromethoxy)phenyl)-1,3,4-thiadiazole] | 10 to 50 µM
28 | FC(F)(F)c1cccc(-c2nnc(C3(F)CCCN(c4cncc(-c5nncs5)n4)C3)s2)n1 (centres unmarked) [Compound 8, 2-(3-Fluoro-3-{5-[6-(trifluoromethyl)pyridin-2-yl]-1,3,4-thiadiazol-2-yl}piperidin-1-yl)-6-(1,3,4-thiadiazol-2-yl)pyrazine] | 10 to 50 µM
29 | FC(F)Cn1ncc2ncc(N3CCCC(c4nnc(-c5ccnc(C(F)(F)F)c5)s4)C3)nc21 (centres unmarked) [Compound 5, 2-(1-(1-(2,2-difluoroethyl)-1H-pyrazolo[3,4-b]pyrazin-6-yl)piperidin-3-yl)-5-(2-(trifluoromethyl)pyridin-4-yl)-1,3,4-thiadiazole] | < 10 µM
